Patent US6620828B2, “Thiazole compounds and pharmaceutical compositions for inhibiting protein kinases and methods for their use” (Agouron Pharmaceuticals, Inc., priority 1999, dated 2003)
Like-named read-outs stand apart in the source and are kept apart here.

Tested on: human umbilical vein endothelial cells (HUVEC)
Assay: HUVEC proliferation assay
Type: cell-based
Conditions: for inhibition at 0.15 µM / % inhibition @ 150 nM: Table I screening results, 150 nM; for inhibition at 0.001 µM: 1 nM; for inhibition at 0.01 µM: 10 nM; for inhibition at 0.05 µM: 50 nM
Method in brief: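 Readout was MTT dye reduction (A595) after 72 h of stimulation with VEGF at 6 ng/ml final. Compound, in 0.1% DMSO final, was added 1 h before VEGF to HUVEC starved 24 h in 1% FBS. % inhibition was scaled between VEGF-alone and unstimulated wells; IC50 was fitted from triplicate dose curves.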

[1] = Homo sapiens, HUVEC, crude combinatorial amide library
[2] = Homo sapiens, HUVEC, Table II screening results, crude combinatorial amide library
[3] = Homo sapiens, HUVEC, Table II screening results, crude combinatorial amide library, read-out: % inhibition @ 10 nM
[4] = Homo sapiens, HUVEC, Inhibition of HUVEC Proliferation, crude combinatorial urea library, read-out: Inhibition @ 50 nM
[5] = Homo sapiens, HUVEC, crude combinatorial urea library, read-out: Inhibition of HUVEC Proliferation % inhibition @ 10 nM
[6] = Homo sapiens, HUVEC, crude combinatorial urea library, read-out: Inhibition of HUVEC Proliferation % inhibition @ 50 nM
[7] = Homo sapiens, HUVEC, table following Table II (untitled), crude combinatorial library
[8] = Homo sapiens, HUVEC, table following Table II (untitled), crude combinatorial library, read-out: % inhibition @ 10 nM
[9] = crude combinatorial amide library
[10] = Homo sapiens, HUVEC, Inhibition of HUVEC Proliferation, crude combinatorial urea library, read-out: % inhibition @ 50 nM

COc1cc(Nc2nc(N)c(-c3nc(-c4cccc(NC(=O)CNC(=O)c5ccccc5)c4)cs3)s2)cc(OC)c1OC
inhibition at 0.15 µM [1]: -26%

CNC(=O)Nc1nc(N)c(-c2nc(-c3cccc(NC(=O)CCN4CCCCC4)c3)cs2)s1
inhibition at 0.001 µM [2]: 1% | inhibition at 0.01 µM [3]: -26%

CCN(CC)CCNC(=O)Nc1nc(N)c(-c2nc(-c3cc(NC(=O)c4cccc(OC)c4)c(F)cc3F)no2)s1
inhibition at 0.05 µM [4]: 82%

COc1cccc(C(=O)Nc2cc(-c3noc(-c4sc(NC(=O)NCCCN5CCCC5)nc4N)n3)c(F)cc2F)c1
inhibition at 0.05 µM [4]: 75%

COc1cccc(C(=O)Nc2cc(-c3noc(-c4sc(NC(=O)NCCN5CCOCC5)nc4N)n3)c(F)cc2F)c1 [drawing 788]
inhibition at 0.05 µM [4]: 106%

CCC(O)CNC(=O)Nc1nc(N)c(-c2nc(-c3cc(NC(=O)c4cccc(OC)c4)c(F)cc3F)no2)s1 (centres unmarked)
inhibition at 0.05 µM [4]: 93%

COc1cccc(C(=O)Nc2cccc(-c3csc(-c4sc(NC(=O)NCC5CCCO5)nc4N)n3)c2)c1 (centres unmarked)
inhibition at 0.01 µM [5]: 46% | inhibition at 0.05 µM [6]: 87%

COc1cccc(C(=O)Nc2cc(-c3csc(-c4sc(NC(=O)NCc5ccccc5)nc4N)n3)c(F)cc2F)c1 [O(13), N-{5-[4′-Amino-2′-(3-benzyl-ureido)-[2,5′]bithiazolyl-4-yl]-2,4-difluoro-phenyl}-3-methoxy-benzamide]
IC50 (Homo sapiens, HUVEC, Table 3): 140 nM

COc1cccc(C(=O)Nc2cc(-c3noc(-c4sc(NC(=O)NCCO)nc4N)n3)c(F)cc2F)c1 [drawing 806]
inhibition at 0.05 µM [4]: 19%

COc1cc(Nc2nc(N)c(-c3nc(-c4cc(NC(=O)C5C(C)(C)C5(C)C)ccc4C)no3)s2)cc(OC)c1OC
inhibition at 0.001 µM [7]: -31% | inhibition at 0.01 µM [8]: 32%

COc1cc(Nc2nc(N)c(-c3nc(-c4cccc(NC(=O)CCc5ccccc5Cl)c4)cs3)s2)cc(OC)c1OC
% inhibition @ 150 nM [9]: 0%

CC/C=C/CC(=O)Nc1cccc(-c2csc(-c3sc(Nc4cc(OC)c(OC)c(OC)c4)nc3N)n2)c1
inhibition at 0.15 µM [1]: 19%

COc1cc(Nc2nc(N)c(-c3nc(-c4cccc(NC(=O)CSc5ccncc5)c4)cs3)s2)cc(OC)c1OC
inhibition at 0.15 µM [1]: -34%

COc1cc(Nc2nc(N)c(-c3nc(-c4cccc(NC(=O)C5C[C@@H]6C=C[C@H]5C6)c4)cs3)s2)cc(OC)c1OC (some centres unmarked)
inhibition at 0.15 µM [1]: 37%

CCn1nc(C)cc1C(=O)Nc1cccc(-c2csc(-c3sc(NC(=O)NC)nc3N)n2)c1
inhibition at 0.001 µM [2]: 17% | inhibition at 0.01 µM [3]: 41%

COc1cccc(C(=O)Nc2cc(-c3noc(-c4sc(NC(=O)NCCCN(CCO)CCO)nc4N)n3)c(F)cc2F)c1
inhibition at 0.05 µM [4]: 84%

COc1cc(Nc2nc(N)c(-c3nc(-c4cc(NC(=O)c5cc(=O)[nH]c(=O)[nH]5)ccc4C)no3)s2)cc(OC)c1OC
inhibition at 0.001 µM [7]: -4% | inhibition at 0.01 µM [8]: 4%

COc1cc(Nc2nc(N)c(-c3nc(-c4cccc(NC(=O)c5c[nH]cn5)c4)cs3)s2)cc(OC)c1OC
inhibition at 0.15 µM [1]: 15%

COc1cc(Nc2nc(N)c(-c3nc(-c4cccc(NC(=O)c5ccc6c(c5)C(=O)N(C)C6=O)c4)cs3)s2)cc(OC)c1OC
inhibition at 0.15 µM [1]: -3%

COc1cc(Nc2nc(N)c(-c3nc(-c4cc(NC(=O)c5ccc(=O)oc5)ccc4C)no3)s2)cc(OC)c1OC
inhibition at 0.001 µM [7]: 30% | inhibition at 0.01 µM [8]: 51%

COc1cccc(C(=O)Nc2cccc(-c3csc(-c4sc(NC(=O)NCP(=O)(O)O)nc4N)n3)c2)c1
inhibition at 0.01 µM [5]: -8% | inhibition at 0.05 µM [6]: 38%

COc1cccc(C(=O)Nc2cc(-c3noc(-c4sc(NC(=O)NCCN(C(C)C)C(C)C)nc4N)n3)c(F)cc2F)c1
inhibition at 0.05 µM [4]: -6%

COc1ccc(C(=O)Nc2cccc(-c3csc(-c4sc(Nc5cc(OC)c(OC)c(OC)c5)nc4N)n3)c2)cc1Cl
% inhibition @ 150 nM [9]: 0%

CNC(=O)Nc1nc(N)c(-c2nc(-c3cccc(NC(=O)C(=O)Cc4ccccc4)c3)cs2)s1
inhibition at 0.001 µM [2]: 8% | inhibition at 0.01 µM [3]: 25%

COc1cccc(C(=O)Nc2cccc(-c3csc(-c4sc(NC(=O)N[C@H](CO)Cc5c[nH]cn5)nc4N)n3)c2)c1
inhibition at 0.01 µM [5]: 16% | inhibition at 0.05 µM [6]: 19%

COc1cc(Nc2nc(N)c(-c3nc(-c4cc(NC(=O)c5cc(C)[nH]c5C)ccc4C)no3)s2)cc(OC)c1OC
inhibition at 0.001 µM [7]: -36% | inhibition at 0.01 µM [8]: 16%

COc1cc(Nc2nc(N)c(-c3nc(-c4cc(NC(=O)c5ccccc5C(C)C)ccc4C)no3)s2)cc(OC)c1OC
inhibition at 0.001 µM [7]: 6% | inhibition at 0.01 µM [8]: 11%

COc1cccc(C(=O)Nc2cc(-c3csc(-c4sc(NC(=O)NCC(=O)O)nc4N)n3)c(F)cc2F)c1
inhibition at 0.05 µM [10]: 23%

COc1cccc(C(=O)Nc2cccc(-c3csc(-c4sc(NC(=O)NCCS(=O)(=O)O)nc4N)n3)c2)c1
inhibition at 0.01 µM [5]: 45% | inhibition at 0.05 µM [6]: 46%

COc1cccc(C(=O)Nc2cc(-c3noc(-c4sc(NC(=O)NC5CCS(=O)(=O)C5)nc4N)n3)c(F)cc2F)c1 (centres unmarked)
inhibition at 0.05 µM [4]: -7%

COc1cccc(C(=O)Nc2cc(-c3noc(-c4sc(NC(=O)NCCN5CCCC5)nc4N)n3)c(F)cc2F)c1
inhibition at 0.05 µM [4]: 79%

COc1cccc(C(=O)Nc2cc(-c3noc(-c4sc(NC(=O)NCCCn5ccnc5)nc4N)n3)c(F)cc2F)c1
inhibition at 0.05 µM [4]: 87%

CNC(=O)Nc1nc(N)c(-c2nc(-c3cccc(NC(=O)C(=O)CC(C)C)c3)cs2)s1
inhibition at 0.001 µM [2]: 3% | inhibition at 0.01 µM [3]: 11%

COc1cccc(C(=O)Nc2cccc(-c3csc(-c4sc(NC(=O)NCCN5CCNCC5)nc4N)n3)c2)c1
inhibition at 0.01 µM [5]: 4% | inhibition at 0.05 µM [6]: 39%

COc1cccc(C(=O)Nc2cccc(-c3csc(-c4sc(NC(=O)NCCc5ccc(S(N)(=O)=O)cc5)nc4N)n3)c2)c1
inhibition at 0.01 µM [5]: 34% | inhibition at 0.05 µM [6]: 49%

COc1cc(Nc2nc(N)c(-c3nc(-c4cc(NC(=O)CCN5CCCCC5)ccc4C)no3)s2)cc(OC)c1OC
inhibition at 0.001 µM [7]: 3% | inhibition at 0.01 µM [8]: 28%

COc1cccc(C(=O)Nc2cccc(-c3csc(-c4sc(NC(=O)NCCc5cncn5C)nc4N)n3)c2)c1
inhibition at 0.01 µM [5]: -15% | inhibition at 0.05 µM [6]: 15%

COc1cc(Nc2nc(N)c(-c3nc(-c4cccc(NC(=O)c5ccoc5)c4)cs3)s2)cc(OC)c1OC
inhibition at 0.15 µM [1]: 7%

COc1cc(Nc2nc(N)c(-c3nc(-c4cccc(NC(=O)c5ccc6c(c5)OCO6)c4)cs3)s2)cc(OC)c1OC
inhibition at 0.15 µM [1]: 42%

CCN1CC(NC(=O)Nc2nc(N)c(-c3nc(-c4cccc(NC(=O)c5cccc(OC)c5)c4)cs3)s2)CN1CC
inhibition at 0.01 µM [5]: -24% | inhibition at 0.05 µM [6]: 45%

COc1cccc(C(=O)Nc2cccc(-c3csc(-c4sc(NC(=O)NCc5cccnc5)nc4N)n3)c2)c1
inhibition at 0.01 µM [5]: 3% | inhibition at 0.05 µM [6]: 105%

COc1cc(Nc2nc(N)c(-c3nc(-c4cc(NC(=O)C(O)CC(C)C)ccc4C)no3)s2)cc(OC)c1OC (centres unmarked)
inhibition at 0.001 µM [7]: 5% | inhibition at 0.01 µM [8]: 69%

CNC(=O)Nc1nc(N)c(-c2nc(-c3cccc(NC(=O)c4cccc5[nH]ccc45)c3)cs2)s1
inhibition at 0.001 µM [2]: -3% | inhibition at 0.01 µM [3]: 2%

COc1cccc(C(=O)Nc2cccc(-c3csc(-c4sc(NC(=O)NCCOCCO)nc4N)n3)c2)c1
inhibition at 0.01 µM [5]: 13% | inhibition at 0.05 µM [6]: 92%

COc1cccc(C(=O)Nc2cc(-c3noc(-c4sc(NC(=O)NCCCN5CCCCCC5)nc4N)n3)c(F)cc2F)c1
inhibition at 0.05 µM [4]: 21%

COc1cc(Nc2nc(N)c(-c3nc(-c4cc(NC(=O)C5CC6C=CCC(C6)C5)ccc4C)no3)s2)cc(OC)c1OC (centres unmarked)
inhibition at 0.001 µM [7]: 18% | inhibition at 0.01 µM [8]: 18%

COc1cccc(C(=O)Nc2cccc(-c3csc(-c4sc(NC(=O)NCCC(N)=O)nc4N)n3)c2)c1
inhibition at 0.01 µM [5]: 30% | inhibition at 0.05 µM [6]: 1%

COc1cc(Nc2nc(N)c(-c3nc(-c4cccc(NC(=O)c5scc(S(=O)(=O)c6ccc(Cl)cc6)c5C)c4)cs3)s2)cc(OC)c1OC
inhibition at 0.15 µM [1]: 10%

COc1cc(Nc2nc(N)c(-c3nc(-c4cccc(NC(=O)C(C)c5ccccc5)c4)cs3)s2)cc(OC)c1OC (centres unmarked)
inhibition at 0.15 µM [1]: 3%

CNC(=O)Nc1nc(N)c(-c2nc(-c3cccc(NC(=O)c4ccccc4)c3)cs2)s1
inhibition at 0.001 µM [2]: -8% | inhibition at 0.01 µM [3]: -40%

COc1cc(Nc2nc(N)c(-c3nc(-c4cc(NC(=O)C5CC5C)ccc4C)no3)s2)cc(OC)c1OC (centres unmarked)
inhibition at 0.001 µM [7]: 24% | inhibition at 0.01 µM [8]: 6%

COc1cc(Nc2nc(N)c(-c3nc(-c4cccc(NC(=O)c5cccc(C#N)c5)c4)cs3)s2)cc(OC)c1OC
inhibition at 0.15 µM [1]: 56%

COc1cc(Nc2nc(N)c(-c3nc(-c4cccc(NC(=O)CC56CC7CC8CC(C5)C8(C7)C6)c4)cs3)s2)cc(OC)c1OC (centres unmarked)
inhibition at 0.15 µM [1]: 8%

CNC(=O)Nc1nc(N)c(-c2nc(-c3cccc(NC(=O)Cn4ccc5ccccc54)c3)cs2)s1
inhibition at 0.001 µM [2]: 4% | inhibition at 0.01 µM [3]: -15%

CNC(=O)Nc1nc(N)c(-c2nc(-c3cccc(NC(=O)c4cc(C)[nH]c4C)c3)cs2)s1
inhibition at 0.001 µM [2]: 25% | inhibition at 0.01 µM [3]: -13%

COc1cccc(C(=O)Nc2cc(-c3csc(-c4sc(NC(=O)NCCN5CCCCC5)nc4N)n3)c(F)cc2F)c1
inhibition at 0.05 µM [10]: 74%

COc1cccc(C(=O)Nc2cccc(-c3csc(-c4sc(NC(=O)NCCc5cccnc5)nc4N)n3)c2)c1
inhibition at 0.01 µM [5]: 35% | inhibition at 0.05 µM [6]: 97%

COc1cccc(C(=O)Nc2cccc(-c3csc(-c4sc(NC(=O)NCc5ccccc5)nc4N)n3)c2)c1
inhibition at 0.01 µM [5]: -11% | inhibition at 0.05 µM [6]: 114%

COc1cc(Nc2nc(N)c(-c3nc(-c4cccc(NC(=O)Cc5ccc(Cl)cc5Cl)c4)cs3)s2)cc(OC)c1OC
inhibition at 0.15 µM [1]: -20%
